Active and inactive are the calls of the source. The rule behind the calls is not given here.
Legend:
Escherichia coli = test: Potentiation of novobiocin-induced antibacterial activity against colistin-resistant Escherichia coli 94393 clinical isolate harboring mcr-1 gene assessed as fold reduction in novobiocin MIC incubated for 18 hrs by CLSI protocol based assay relative to novobiocin MIC; format: functional
Pseudomonas aeruginosa [1] = test: Potentiation of novobiocin-induced antibacterial activity against carbapenem and colistin-resistant Pseudomonas aeruginosa 114228 clinical isolate assessed as novobiocin MIC at <= 7.1 uM incubated for 18 hrs by CLSI protocol based assay (reference value: 512 ug/ml); format: functional; conditions: Pseudomonas aeruginosa, 114228, 18 h
Enterobacter cloacae [2] = test: Potentiation of novobiocin-induced antibacterial activity against Enterobacter cloacae 117029 clinical solate assessed as novobiocin MIC at <= 7.1 uM incubated for 18 hrs by CLSI protocol based assay (reference value: 1024 ug/ml); format: functional; conditions: Enterobacter cloacae, 117029, 18 h
Acinetobacter baumannii [3] = test: Potentiation of novobiocin-induced antibacterial activity against Acinetobacter baumannii 027 clinical isolate assessed as novobiocin MIC at <= 7.1 uM incubated for 18 hrs by CLSI protocol based assay (reference value: 8 ug/ml); format: functional; conditions: Acinetobacter baumannii, 027, 18 h
Pseudomonas aeruginosa [4] = test: Synergistic antibacterial activity against wild type Pseudomonas aeruginosa PAO1 assessed as potentiation of minocycline-induced antibacterial effect incubated for 18 hrs by checkerboard assay; format: functional, organism-based
Erythrocyte = test: Hemolytic activity against porcine erythrocytes assessed as hemoglobin release at 1024 ug/ml incubated for 1 hr by microplate reader analysis; format: ADME, cell-based, Sus scrofa; conditions: pig
Acinetobacter baumannii [5] = test: Potentiation of novobiocin-induced antibacterial activity against Acinetobacter baumannii LAC-4 clinical isolate assessed as fold reduction in novobiocin MIC incubated for 18 hrs by CLSI protocol based assay relative to novobiocin MIC; format: functional
Pseudomonas aeruginosa [6] = test: Antibacterial activity against mexAB-oprM mutant deficient Pseudomonas aeruginosa PAO200 incubated for 18 hrs by CLSI protocol based assay; format: functional; conditions: PAO200, 18 h
Pseudomonas aeruginosa [7] = test: Synergistic antibacterial activity against wild type Pseudomonas aeruginosa PAO1 assessed as potentiation of cefotaxime-induced antibacterial effect incubated for 18 hrs by checkerboard assay; format: functional, organism-based
Acinetobacter baumannii [8] = test: Potentiation of novobiocin-induced antibacterial activity against colistin-resistant Acinetobacter baumannii 92247 clinical isolate assessed as novobiocin MIC at <= 7.1 uM incubated for 18 hrs by CLSI protocol based assay (reference value: 4 ug/ml); format: functional; conditions: Acinetobacter baumannii, 92247, 18 h
Pseudomonas aeruginosa [9] = test: Antibacterial activity against mexAB-oprM/mexCD-oprJ/mexEF-oprN/mexJK/mexXY/opmH mutant deficient Pseudomonas aeruginosa PAO750 incubated for 18 hrs by CLSI protocol based assay; format: functional; conditions: PAO750, 18 h
Pseudomonas aeruginosa [10] = test: Synergistic antibacterial activity against wild type Pseudomonas aeruginosa PAO1 assessed as potentiation of levofloxacin-induced antibacterial effect incubated for 18 hrs by checkerboard assay relative to levofloxacin alone; format: functional
Acinetobacter baumannii [11] = test: Antibacterial activity against wild type Acinetobacter baumannii ATCC 17978 assessed as resistant development at 7.1 uM measured after 5 days of passaging in presence of novobiocin by microbroth dilution method relative to control; format: functional
Pseudomonas aeruginosa [12] = test: Synergistic antibacterial activity against wild type Pseudomonas aeruginosa PAO1 assessed as potentiation of doxycycline-induced antibacterial effect incubated for 18 hrs by checkerboard assay; format: functional, organism-based
Acinetobacter baumannii [13] = test: Antibacterial activity against wild type Acinetobacter baumannii ATCC 17978 assessed as resistant development at 7.1 uM in presence of novobiocin by microbroth dilution method relative to control; format: functional
Acinetobacter baumannii [14] = test: Antibacterial activity against Acinetobacter baumannii 031 clinical incubated for 18 hrs by CLSI protocol based assay; format: functional; conditions: Acinetobacter baumannii, 031, 18 h
Pseudomonas aeruginosa [15] = test: Synergistic antibacterial activity against wild type Pseudomonas aeruginosa PAO1 assessed as potentiation of ciprofloxacin-induced antibacterial effect incubated for 18 hrs by checkerboard assay; format: functional, organism-based
Acinetobacter baumannii [16] = test: Potentiation of novobiocin-induced antibacterial activity against Acinetobacter baumannii LAC-4 clinical isolate assessed as novobiocin MIC at <= 7.1 uM incubated for 18 hrs by CLSI protocol based assay (reference value: 8 ug/ml); format: functional; conditions: LAC-4, 18 h
Acinetobacter baumannii [17] = test: Bactericidal activity against Acinetobacter baumannii ATCC 17978 assessed as log reduction in colony forming units per ml at 7.1 uM in LB media after 9 hrs by time-kill assay; format: functional
Pseudomonas aeruginosa [18] = test: Synergistic antibacterial activity against wild type Pseudomonas aeruginosa PAO1 assessed as potentiation of piperacillin-induced antibacterial effect incubated for 18 hrs by checkerboard assay relative to piperacillin alone; format: functional
[19] = Toxicity in Galleria mellonella larvae MDR Acinetobacter baumannii isolate assessed as mortality at 100 mg/kg measured after 24 hrs relative to control; format: ADME, organism-based; conditions: in vivo, read-out: Activity
Pseudomonas aeruginosa [20] = test: Antibacterial activity against carbapenem-resistant Pseudomonas aeruginosa 100036 clinical isolate incubated for 18 hrs by CLSI protocol based assay; format: functional; conditions: Pseudomonas aeruginosa, 100036, 18 h
Klebsiella pneumoniae [21] = test: Antibacterial activity against colistin-resistant Klebsiella pneumoniae 113250 clinical isolate incubated for 18 hrs by CLSI protocol based assay; format: functional; conditions: Klebsiella pneumoniae, 113250, 18 h
Pseudomonas aeruginosa [22] = test: Potentiation of novobiocin-induced antibacterial activity against carbapenem-resistant Pseudomonas aeruginosa 262-101856 clinical isolate assessed as novobiocin MIC at <= 7.1 uM incubated for 18 hrs by CLSI protocol based assay (reference value: 512 ug/ml); format: functional; conditions: 262-101856, 18 h
Enterobacter cloacae [23] = test: Potentiation of novobiocin-induced antibacterial activity against colistin-resistant Enterobacter cloacae 121187 clinical solate assessed as fold reduction in novobiocin MIC incubated for 18 hrs by CLSI protocol based assay relative to novobiocin MIC; format: functional
Pseudomonas aeruginosa [24] = test: Antibacterial activity against colistin and carbapenem-resistant Pseudomonas aeruginosa 101243 clinical isolate incubated for 18 hrs by CLSI protocol based assay; format: functional; conditions: Pseudomonas aeruginosa, 101243, 18 h
Acinetobacter baumannii [25] = test: Potentiation of novobiocin-induced antibacterial activity against novobiocin and colistin resistant Acinetobacter baumannii ATCC 17978 mutant generated from seven serial passages by checkerboard assay; format: functional, organism-based
Pseudomonas aeruginosa [26] = test: Antibacterial activity against carbapenem and colistin-resistant Pseudomonas aeruginosa 91433 clinical isolate incubated for 18 hrs by CLSI protocol based assay; format: functional; conditions: Pseudomonas aeruginosa, 91433, 18 h
Pseudomonas aeruginosa [27] = test: Synergistic antibacterial activity against wild type Pseudomonas aeruginosa PAO1 assessed as potentiation of ceftazidime-induced antibacterial effect incubated for 18 hrs by checkerboard assay; format: functional, organism-based
Acinetobacter baumannii [28] = test: Antibacterial activity against colistin-resistant Acinetobacter baumannii 92257 clinical isolate incubated for 18 hrs by CLSI protocol based assay; format: functional; conditions: Acinetobacter baumannii, 92257, 18 h
Pseudomonas aeruginosa [29] = test: Synergistic antibacterial activity against wild type Pseudomonas aeruginosa PAO1 assessed as potentiation of aztreonam-induced antibacterial effect incubated for 18 hrs by checkerboard assay relative to aztreonam alone; format: functional
Klebsiella pneumoniae [30] = test: Bactericidal activity against Klebsiella pneumoniae 116381 assessed as log reduction in colony forming units per ml at 7.1 in LB media after 24 hrs in presence of 50.4 uM novobiocin by time-kill assay; format: functional, organism-based
Pseudomonas aeruginosa [31] = test: Potentiation of novobiocin-induced antibacterial activity against carbapenem-resistant Pseudomonas aeruginosa 101885 clinical isolate assessed as novobiocin MIC at <= 7.1 uM incubated for 18 hrs by CLSI protocol based assay (reference value: 1024 ug/ml); format: functional; conditions: Pseudomonas aeruginosa, 101885, 18 h

Molecule `NC[C@H]1O[C@H](O[C@H]2[C@H](OCCCCc3cn(CCCCO[C@@H]4[C@@H](O[C@H]5O[C@H](CO)[C@@H](O)[C@H](N)[C@H]5O)[C@H](N)C[C@H](N)[C@H]4O[C@H]4O[C@H](CN)[C@@H](O)C[C@H]4N)nn3)[C@@H](O[C@H]3O[C@H](CO)[C@@H](O)[C@H](N)[C@H]3O)[C@H](N)C[C@@H]2N)[C@H](N)C[C@@H]1O.O=C(O)C(F)(F)F.O=C(O)C(F)(F)F.O=C(O)C(F)(F)F.O=C(O)C(F)(F)F.O=C(O)C(F)(F)F.O=C(O)C(F)(F)F.O=C(O)C(F)(F)F.O=C(O)C(F)(F)F.O=C(O)C(F)(F)F.O=C(O)C(F)(F)F` has a Ratio (Escherichia coli) of 64, an MIC (Pseudomonas aeruginosa [1]) of 16 µg/mL and an MIC (Enterobacter cloacae [2]) of 8 µg/mL. The MIC (Acinetobacter baumannii [3]) was 0.5 µg/mL, the Activity (Pseudomonas aeruginosa [4]) was “Dose-dependent effect” and the Activity (Erythrocyte) was “Non-Toxic”. For the same molecule, the Ratio (Acinetobacter baumannii [5]) was 16, the MIC (Pseudomonas aeruginosa [6]) was over 128 µg/mL and the Activity (Pseudomonas aeruginosa [7]) was “Dose-dependent effect”. For the same molecule, the MIC (Acinetobacter baumannii [8]) was 0.25 µg/mL, the MIC (Pseudomonas aeruginosa [9]) was over 128 µg/mL and the “fold change (FC)” value (Pseudomonas aeruginosa [10]) was 4 - 128. The “fold change (FC)” value (Acinetobacter baumannii [11]) was 16, the Activity (Pseudomonas aeruginosa [12]) was “Dose-dependent effect” and the “fold change (FC)” value (Acinetobacter baumannii [13]) was 2. The MIC (Acinetobacter baumannii [14]) was over 128 µg/mL, the Activity (Pseudomonas aeruginosa [15]) was “Dose-dependent effect” and the MIC (Acinetobacter baumannii [16]) was 0.5 µg/mL. The Activity (Acinetobacter baumannii [17]) was -3 CFU/ml, the “fold change (FC)” value (Pseudomonas aeruginosa [18]) was 4 - 128 and the mortality at 24 h [19] was 100%. For the same molecule, the MIC (Pseudomonas aeruginosa [20]) was over 128 µg/mL, the MIC (Klebsiella pneumoniae [21]) was over 128 µg/mL and the MIC (Pseudomonas aeruginosa [22]) was 8 µg/mL. For the same molecule, the Ratio (Enterobacter cloacae [23]) was 8, the MIC (Pseudomonas aeruginosa [24]) was over 128 µg/mL and the Activity (Acinetobacter baumannii [25]) was “inactive”. For the same molecule, the MIC (Pseudomonas aeruginosa [26]) was over 128 µg/mL, the Activity (Pseudomonas aeruginosa [27]) was “Dose-dependent effect” and the MIC (Acinetobacter baumannii [28]) was over 128 µg/mL. The “fold change (FC)” value (Pseudomonas aeruginosa [29]) was 4 - 128, the Activity (Klebsiella pneumoniae [30]) was “Active” and the MIC (Pseudomonas aeruginosa [31]) was 8 µg/mL.

From ChEMBL document CHEMBL4376820, “Homodimeric Tobramycin Adjuvant Repurposes Novobiocin as an Effective Antibacterial Agent against Gram-Negative Bacteria” (J Med Chem, 2019)
